Results on 17 molecules are retold here after PMC3179844 (Chemmedchem, 2011).

For `O=C(CS(=O)(=O)c1ccncc1)C12CC3CC(CC(C3)C1)C2` [Compound 21, 1-(Adamantan-1-yl)-2-(pyridine-4-sulfonyl)ethan-1-one], the melting point (usually the temperature of the solid-liquid transition) lay within 143 to 144 °C. Then `O=C(CSCc1ccccn1)C12CC3CC(CC(C3)C1)C2` [Compound 37, 1-(Adamantan-1-yl)-2-[(pyridin-2-ylmethyl)sulfanyl]ethan-1-one], with 38 to 39 °C; and `O=C(CSCc1cccnc1)C12CC3CC(CC(C3)C1)C2` [Compound 38, 1-(Adamantan-1-yl)-2-[(pyridin-3-ylmethyl)sulfanyl]ethan-1-one], with 45 to 47 °C; and `O=C(NCC(=O)C12CC3CC(CC(C3)C1)C2)c1cccnc1` [Compound 58, N-[2-(Adamantan-1-yl)-2-oxoethyl]pyridine-3-carboxamide], with 114 to 115 °C. Regarding `O=C(CSc1ccncc1)C12CC3CC(CC(C3)C1)C2` [Compound 15, 1-(Adamantan-1-yl)-2-(pyridin-4-ylsulfanyl)ethan-1-one], the melting point lay in the range of 114 to 115 °C.

Turning to `CCNC(=O)c1ccc(SCC(=O)C23CC4CC(CC(C4)C2)C3)nc1` [Compound 26, 6-{[2-(Adamantan-1-yl)-2-oxoethyl]sulfanyl}-N-ethylpyridine-3-carboxamide], the melting point lay within 136 to 137 °C.

`O=C(Cc1ccccn1)NCC(=O)C12CC3CC(CC(C3)C1)C2` [Compound 60, N-[2-(Adamantan-1-yl)-2-oxoethyl]-2-(pyridin-2-yl)acetamide] displayed a melting point of 137 to 139 °C. Then `O=C(Cc1cccnc1)NCC(=O)C12CC3CC(CC(C3)C1)C2` [Compound 61, N-[2-(Adamantan-1-yl)-2-oxoethyl]-2-(pyridin-3-yl)acetamide], with 115 to 117 °C. With `O=C(O)c1ccc(SCC(=O)C23CC4CC(CC(C4)C2)C3)nc1` [Compound 23, 6-{[2-(Adamantan-1-yl)-2-oxoethyl]sulfanyl}pyridine-3-carboxylic acid], the melting point was 174 to 176 °C.

Regarding `Cc1cccc(S(=O)(=O)CC(=O)C23CC4CC(CC(C4)C2)C3)n1` [Compound 20, 1-(Adamantan-1-yl)-2-(6-methylpyridine-2-sulfonyl)ethan-1-one], the melting point lay in the range of 151 to 152 °C. Molecule `O=C(NCC(=O)C12CC3CC(CC(C3)C1)C2)c1ccccn1` [Compound 56, N-[2-(Adamantan-1-yl)-2-oxoethyl]pyridine-2-carboxamide] registered a melting point of 135 to 136 °C. The figure for `Cc1cccc(C(=O)NCC(=O)C23CC4CC(CC(C4)C2)C3)n1` [Compound 57, N-[2-(Adamantan-1-yl)-2-oxoethyl]-6-methylpyridine-2-carboxamide] is 110 to 111 °C; for `O=C(CS(=O)(=O)c1ccccn1)C12CC3CC(CC(C3)C1)C2` [Compound 19, 1-(Adamantan-1-yl)-2-(pyridine-2-sulfonyl)ethan-1-one] it is 129 to 131 °C; for `O=C(NCC(=O)C12CC3CC(CC(C3)C1)C2)c1ccncc1` [Compound 59, N-[2-(Adamantan-1-yl)-2-oxoethyl]pyridine-4-carboxamide] it is 147 to 149 °C.

In turn, `O=C(COc1ccc(C(F)(F)F)cn1)C12CC3CC(CC(C3)C1)C2` [Compound 8, 1-(Adamantan-1-yl)-2-{[5-(trifluoromethyl)pyridin-2-yl]oxy}ethan-1-one] had a melting point of 102 to 104 °C. In the case of `NC(=O)c1ccc(SCC(=O)C23CC4CC(CC(C4)C2)C3)nc1` [Compound 24, 6-{[2-(Adamantan-1-yl)-2-oxoethyl]sulfanyl}pyridine-3-carboxamide], the melting point lay in the range of 172 to 174 °C. In turn, `CN(C)C(=O)c1ccc(SCC(=O)C23CC4CC(CC(C4)C2)C3)nc1` [Compound 27, 6-{[2-(Adamantan-1-yl)-2-oxoethyl]sulfanyl}-N,N-dimethylpyridine-3-carboxamide] came in with a melting point of 63 to 65 °C.
